In PubChem BioAssay (NCI):
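Assay format: 96-well plates, 48-hour exposure. TGI marks complete inhibition of growth.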

System: RPMI-8226 leukemia
Assay: DTP human tumour cell line panel, 48 h

| Compound | TGI [µM] |
| --- | --- |
| CC12CCC3[C@@H](CC3(C)C)C(O)(CCC1=O)C2 (some centres not stated) | > 100 |
| CO[C@H]1c2cccc3cccc(c23)[C@@H]1n1[nH]c(=O)n(C(C)(C)C)c1=O | > 100 |
| CCCCCCCCCCCCCCCCCCNc1ccn(C2OC(COP(=O)(O)OC3CC(n4cc(F)c(=O)[nH]c4=O)OC3COP(=O)(O)OCC3OC(n4ccc(N)nc4=O)C(O)C3O)C(O)C2O)c(=O)n1 (configuration not stated) | 71.4 |

System: SF-268 CNS
Assay: DTP human tumour cell line panel, 48 h

| Compound | TGI [µM] |
| --- | --- |
| Nc1nc(N)c2cc(Sc3ccc4nc(N)nc(N)c4c3)ccc2n1 | > 100 |
| N#CC(C#N)N=Cc1ccncc1 | > 100 |
| COC(=O)C1=C(O)C(C(=O)OC)[C@]2(O)[C@H](C(=O)OC)[C@H]1C[C@@H](c1ccc(F)cc1)[C@H]2C(=O)OC (some centres not stated) | 95 |
| CCN(CC)c1cc2c3c(c1)CCCN3CCC2 | > 10 |
| CN(C)C=C1C(=O)c2c(Br)sc(Br)c2C1=O | 32.5 |
| CC(=O)O[C@H]1CC[C@H]2[C@@H]3CCC4C(C)=NNC(=O)C4[C@H]3CC[C@]12C (some centres not stated) | > 100 |
| COc1cc2c[n+](C)c3c4cc5c(cc4ccc3c2cc1OC)OCO5 | 39.4 |
| O=c1[nH]c(C23CC4CC(CC(C4)C2)C3)cc2c1c(=O)oc1ccccc12 | 9.52 |
| CCN(CC)C(=C(C(Cl)=C(Cl)Cl)[N+](=O)[O-])N(CC)CC | > 100 |
| O=C1C(=O)c2c(oc(=O)c3ccccc23)-c2ccccc21 | > 25 |
| CCOC(=O)C(C(=O)OCC)=C1NC2(c3ccccc3Nc3ccc(C)cc32)C(C#N)S1 (configuration not stated) | 36.2 |
| CN1CCC2(CC1)SC[C@H]1C(=O)N(c3ccc(Cl)cc3)C(=O)N12 | > 100 |
| CC(C)=CCC[C@@H](C)C1=C(O)C(O)C(C)=C2N=C(c3ccccc3)C(=O)OC21 (some centres not stated) | > 25 |
| Cc1cc([C@H](C#N)c2nc3ccccc3[nH]2)nc(Cl)n1 | > 100 |
| CC(C)(C)[Si](C)(C)O[C@@H](C(=O)OC1C=CCCC1)[C@@H](NC(=O)c1ccccc1)c1ccccc1 (some centres not stated) | > 100 |
| Cc1oc2c(c1C)S(=O)(=O)C(C#N)=C(c1ccccc1)N2 | > 100 |
| O=C1c2ccccc2C(O)(C(=O)O)C1(O)CC=C(Cl)Cl (configuration not stated) | > 125 |
| CC(=O)O[C@@H]1CC[C@@]2(C)C(CC[C@H]3[C@@H]4CC[C@H]([C@H](C)CCc5nc6ccc(C)cc6[nH]5)[C@@]4(C)CC[C@@H]32)C1 (some centres not stated) | > 100 |
| COc1cccc(OC/C(N=Cc2cccnc2)=N/NC(=O)c2ccncc2)c1 | > 100 |
| C/C1=C/C(C)CC(C)OC(=O)C(C)NC(=O)C(Cc2ccc(O)c(I)c2)N(C)C(=O)CNC(=O)C(C)C1 (configuration not stated) | 1.35 |
| Cc1ccc(-n2cnc3c(N)nc(N)nc32)cc1 | > 100 |
| CC12CCC3[C@@H](CC3(C)C)C(O)(CCC1=O)C2 (some centres not stated) | > 100 |
| CO[C@H]1c2cccc3cccc(c23)[C@@H]1n1[nH]c(=O)n(C(C)(C)C)c1=O | > 100 |

System: U251 CNS
Assay: DTP human tumour cell line panel, 48 h

| Compound | TGI [µM] |
| --- | --- |
| Nc1nc(N)c2cc(Sc3ccc4nc(N)nc(N)c4c3)ccc2n1 | > 100 |
| N#CC(C#N)N=Cc1ccncc1 | > 100 |
| COc1ccc2c(c1)/C(=C\c1c(C)nc3n1CCS3)C(=O)N2 | 60 |
| COC(=O)C1=C(O)C(C(=O)OC)[C@]2(O)[C@H](C(=O)OC)[C@H]1C[C@@H](c1ccc(F)cc1)[C@H]2C(=O)OC (some centres not stated) | 31.9 |
| CCN(CC)c1cc2c3c(c1)CCCN3CCC2 | > 10 |
| CN(C)C=C1C(=O)c2c(Br)sc(Br)c2C1=O | 39.6 |
| CC(=O)O[C@H]1CC[C@H]2[C@@H]3CCC4C(C)=NNC(=O)C4[C@H]3CC[C@]12C (some centres not stated) | > 100 |
| COc1cc2c[n+](C)c3c4cc5c(cc4ccc3c2cc1OC)OCO5 | 2.13 |
| O=c1[nH]c(C23CC4CC(CC(C4)C2)C3)cc2c1c(=O)oc1ccccc12 | 7.55 |
| CCN(CC)C(=C(C(Cl)=C(Cl)Cl)[N+](=O)[O-])N(CC)CC | > 100 |
| O=C1C(=O)c2c(oc(=O)c3ccccc23)-c2ccccc21 | > 25 |
| CCOC(=O)C(C(=O)OCC)=C1NC2(c3ccccc3Nc3ccc(C)cc32)C(C#N)S1 (configuration not stated) | 17.9 |
| CN1CCC2(CC1)SC[C@H]1C(=O)N(c3ccc(Cl)cc3)C(=O)N12 | > 100 |
| CC(C)=CCC[C@@H](C)C1=C(O)C(O)C(C)=C2N=C(c3ccccc3)C(=O)OC21 (some centres not stated) | > 25 |
| Cc1cc([C@H](C#N)c2nc3ccccc3[nH]2)nc(Cl)n1 | > 100 |
| CC(C)(C)[Si](C)(C)O[C@@H](C(=O)OC1C=CCCC1)[C@@H](NC(=O)c1ccccc1)c1ccccc1 (some centres not stated) | > 100 |
| Cc1oc2c(c1C)S(=O)(=O)C(C#N)=C(c1ccccc1)N2 | > 100 |
| O=C1c2ccccc2C(O)(C(=O)O)C1(O)CC=C(Cl)Cl (configuration not stated) | > 125 |
| CC(=O)O[C@@H]1CC[C@@]2(C)C(CC[C@H]3[C@@H]4CC[C@H]([C@H](C)CCc5nc6ccc(C)cc6[nH]5)[C@@]4(C)CC[C@@H]32)C1 (some centres not stated) | > 100 |
| COc1cccc(OC/C(N=Cc2cccnc2)=N/NC(=O)c2ccncc2)c1 | > 100 |
| C/C1=C/C(C)CC(C)OC(=O)C(C)NC(=O)C(Cc2ccc(O)c(I)c2)N(C)C(=O)CNC(=O)C(C)C1 (configuration not stated) | 0.0707 |
| Cc1ccc(-n2cnc3c(N)nc(N)nc32)cc1 | > 100 |
| CC12CCC3[C@@H](CC3(C)C)C(O)(CCC1=O)C2 (some centres not stated) | > 100 |
| CO[C@H]1c2cccc3cccc(c23)[C@@H]1n1[nH]c(=O)n(C(C)(C)C)c1=O | > 100 |
| CCCCCCCCCCCCCCCCCCNc1ccn(C2OC(COP(=O)(O)OC3CC(n4cc(F)c(=O)[nH]c4=O)OC3COP(=O)(O)OCC3OC(n4ccc(N)nc4=O)C(O)C3O)C(O)C2O)c(=O)n1 (configuration not stated) | > 50.4 |

System: OVCAR-3 ovarian
Assay: DTP human tumour cell line panel, 48 h

| Compound | TGI [µM] |
| --- | --- |
| Nc1nc(N)c2cc(Sc3ccc4nc(N)nc(N)c4c3)ccc2n1 | > 31.6 |
| N#CC(C#N)N=Cc1ccncc1 | > 100 |
| COc1ccc2c(c1)/C(=C\c1c(C)nc3n1CCS3)C(=O)N2 | 76 |
| COC(=O)C1=C(O)C(C(=O)OC)[C@]2(O)[C@H](C(=O)OC)[C@H]1C[C@@H](c1ccc(F)cc1)[C@H]2C(=O)OC (some centres not stated) | 35.5 |
| CCN(CC)c1cc2c3c(c1)CCCN3CCC2 | > 10 |
| CN(C)C=C1C(=O)c2c(Br)sc(Br)c2C1=O | 40.8 |
